Measurements taken from ChEMBL document CHEMBL5523740, “Discovery of Potent and Selective c-Met Degraders for Hepatocellular Carcinoma Treatment” (J Med Chem, 2024).
Activity calls are given as the source filed them. The rule behind the calls is not given here.

Columns and labels:
[1] = test system: BaF3; test: Antiproliferative activity against mouse BaF3 cells harboring TPR-MET D1228N mutant fusion protein incubated for 72 hrs by CellTiter-Glo reagent based assay; type: functional, cell-based; details: BaF3, 72 h
[2] = molecular target: T1, Hepatocyte growth factor receptor (Homo sapiens, UniProt P08581); test: Induction of c-Met degradation in human MHCC97H cells incubated for 24 hrs by Western blotting analysis; type: cell-based
T1 sequence (P08581 whole entry): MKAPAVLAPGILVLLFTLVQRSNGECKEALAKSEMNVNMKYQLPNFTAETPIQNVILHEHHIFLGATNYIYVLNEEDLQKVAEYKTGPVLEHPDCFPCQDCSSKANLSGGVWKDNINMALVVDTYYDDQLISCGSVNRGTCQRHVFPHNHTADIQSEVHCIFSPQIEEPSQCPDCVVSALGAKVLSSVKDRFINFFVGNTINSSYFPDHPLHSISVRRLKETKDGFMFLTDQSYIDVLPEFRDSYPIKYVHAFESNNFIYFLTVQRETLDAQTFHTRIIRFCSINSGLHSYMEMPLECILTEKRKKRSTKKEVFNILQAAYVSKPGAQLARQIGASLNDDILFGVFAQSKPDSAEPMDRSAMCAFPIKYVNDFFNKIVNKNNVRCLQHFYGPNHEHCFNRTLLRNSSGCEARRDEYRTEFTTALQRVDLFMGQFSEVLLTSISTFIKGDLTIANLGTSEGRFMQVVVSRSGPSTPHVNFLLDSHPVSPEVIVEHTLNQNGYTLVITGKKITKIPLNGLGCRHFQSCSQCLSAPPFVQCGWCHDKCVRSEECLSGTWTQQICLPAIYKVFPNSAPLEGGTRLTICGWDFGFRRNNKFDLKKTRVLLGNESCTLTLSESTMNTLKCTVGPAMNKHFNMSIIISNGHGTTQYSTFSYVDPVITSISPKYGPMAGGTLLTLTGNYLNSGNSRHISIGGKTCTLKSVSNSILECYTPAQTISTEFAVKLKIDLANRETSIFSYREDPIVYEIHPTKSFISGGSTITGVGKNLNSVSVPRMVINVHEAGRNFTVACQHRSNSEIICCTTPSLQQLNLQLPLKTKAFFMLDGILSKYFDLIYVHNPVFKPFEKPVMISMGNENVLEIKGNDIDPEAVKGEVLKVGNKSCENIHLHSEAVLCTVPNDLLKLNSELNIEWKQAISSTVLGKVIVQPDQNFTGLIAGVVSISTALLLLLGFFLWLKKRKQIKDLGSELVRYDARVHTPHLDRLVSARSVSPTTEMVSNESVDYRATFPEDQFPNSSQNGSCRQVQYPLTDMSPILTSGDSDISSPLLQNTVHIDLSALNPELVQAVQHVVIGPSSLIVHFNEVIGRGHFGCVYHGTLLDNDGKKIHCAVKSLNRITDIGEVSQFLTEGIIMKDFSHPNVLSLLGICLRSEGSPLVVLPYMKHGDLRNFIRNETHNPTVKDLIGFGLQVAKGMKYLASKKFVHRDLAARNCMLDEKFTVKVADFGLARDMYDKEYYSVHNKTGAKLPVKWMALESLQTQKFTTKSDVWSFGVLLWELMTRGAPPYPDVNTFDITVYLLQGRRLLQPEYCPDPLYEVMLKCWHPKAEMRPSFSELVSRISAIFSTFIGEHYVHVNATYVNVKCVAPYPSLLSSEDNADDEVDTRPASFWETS

[3] = Toxicity in BALB/c mouse xenografted with human MHCC97H cells assessed as reduction in body weight at 20 mg/kg, po qd for 22 days and measured every 2 days; type: organism-based; details: in vivo, 528 h, time 22 day
[4] = Clearance in Sprague-Dawley rat at 10 mg/kg, po by LC-MS/MS method; type: ADME, organism-based; details: in vivo
[5] = test system: MHCC97H; test: Antitumor activity against human MHCC97H cells xenografted in BALB/c mouse assessed as tumor growth inhibition at 10 mg/kg, ip qd for 22 days and measured every 2 days; type: functional; details: 528 h, time 22 day, read-out: TGI
[6] = test system: MHCC97H; test: Induction of apoptosis in human MHCC97H cells assessed as necrotic cells incubated for 24 hrs by Annexin-V-FITC/PI staining based flow cytometry analysis; type: functional, cell-based; details: dose 3-100 nM
[7] = test system: Mus musculus; test: Downregulation of phosphorylated c-Met level in BALB/c mouse tumor xenografted with human MHCC97H cells at 10 mg/kg, ip qd for 22 days and measured every 2 days by Western blotting analysis; type: functional, organism-based; details: time 22.0 day
[8] = Mean residence time (0 to infinity) in Sprague-Dawley rat at 10 mg/kg, po by LC-MS/MS method; type: ADME, organism-based; details: in vivo
[9] = test system: MHCC97H; test: Inhibition of colony formation in human MHCC97H cells at 3 to 100 nM incubated for 2 weeks by crystal violet staining based assay; type: functional, cell-based; details: dose 3-100 nM
[10] = molecular target: T1, Hepatocyte growth factor receptor; test: Induction of c-Met degradation in human Huh-7 cells incubated for 24 hrs by Western blotting analysis; type: cell-based; details: dose 63-100 nM
[11] = test system: MHCC97H; test: Induction of apoptosis in human MHCC97H cells assessed as necrotic cells at 3 nM incubated for 24 hrs by Annexin-V-FITC/PI staining based flow cytometry analysis (reference value: 1.77%); type: functional
[12] = Mean residence time (0 to infinity) in Sprague-Dawley rat at 1 mg/kg, iv by LC-MS/MS method; type: ADME, organism-based; details: in vivo
[13] = test system: MHCC97H; test: Induction of cell cycle arrest in human MHCC97H cells assessed as accumulation of cells at G1 phase at 100 nM incubated for 24 hrs by PI staining based flow cytometry analysis (reference value: 70.4%); type: functional
[14] = Cmax in Sprague-Dawley rat at 1 mg/kg, iv by LC-MS/MS method; type: ADME, organism-based; details: in vivo
[15] = Toxicity in BALB/c mouse xenografted with human MHCC97H cells assessed as reduction in body weight at 10 mg/kg, ip qd for 22 days and measured every 2 days; type: organism-based; details: in vivo, 528 h, time 22 day
[16] = molecular target: T1, Hepatocyte growth factor receptor; test: Induction of c-Met degradation in human MHCC97H cells at 1 uM incubated for 24 hrs by Western blotting analysis; type: cell-based
[17] = Toxicity in BALB/c mouse xenografted with human MHCC97H cells assessed as kidney lesions at 20 mg/kg, po qd for 22 days and measured every 2 days by H and E staining based assay; type: organism-based; details: in vivo, 528 h, time 22 day
[18] = Half-life in Sprague-Dawley rat at 1 mg/kg, iv by LC-MS/MS method; type: ADME, organism-based; details: in vivo
[19] = test system: MHCC97H; test: Induction of apoptosis in human MHCC97H cells assessed as early apoptotic cells at 10 nM incubated for 24 hrs by Annexin-V-FITC/PI staining based flow cytometry analysis (reference value: 7.70%); type: functional
[20] = molecular target: T1, Hepatocyte growth factor receptor; test: Induction of c-Met degradation in human HepG2 cells incubated for 24 hrs by Western blotting analysis; type: cell-based; details: dose 63-100 nM
[21] = test system: Mus musculus; test: Downregulation of c-Met protein level in BALB/c mouse tumor xenografted with human MHCC97H cells at 20 mg/kg, po qd for 22 days and measured every 2 days by Western blotting analysis; type: functional, organism-based; details: time 22.0 day
[22] = test system: MHCC97H; test: Induction of apoptosis in human MHCC97H cells assessed as necrotic cells at 10 nM incubated for 24 hrs by Annexin-V-FITC/PI staining based flow cytometry analysis (reference value: 1.77%); type: functional
[23] = test system: Mus musculus; test: Downregulation of phosphorylated STAT3 level in BALB/c mouse tumor xenografted with human MHCC97H cells at 10 mg/kg, ip qd for 22 days and measured every 2 days by Western blotting analysis; type: functional, organism-based; details: time 22.0 day
[24] = test system: MHCC97H; test: Induction of apoptosis in human MHCC97H cells assessed as late apoptotic cells at 10 nM incubated for 24 hrs by Annexin-V-FITC/PI staining based flow cytometry analysis (reference value: 4.24%); type: functional
[25] = test system: MHCC97H; test: Induction of apoptosis in human MHCC97H cells assessed as early apoptotic cells at 100 nM incubated for 24 hrs by Annexin-V-FITC/PI staining based flow cytometry analysis (reference value: 7.70%); type: functional
[26] = Toxicity in BALB/c mouse xenografted with human MHCC97H cells assessed as lung lesions at 10 mg/kg, ip qd for 22 days and measured every 2 days by H and E staining based assay; type: organism-based; details: in vivo, 528 h, time 22 day
[27] = molecular target: T1, Hepatocyte growth factor receptor; test: Induction of c-Met degradation in human MHCC97H cells at 500 nM after 3 to 24 hrs by Western blotting analysis; type: cell-based; details: time 3-24 hrs
[28] = test system: MHCC97H; test: Induction of apoptosis in human MHCC97H cells assessed as late apoptotic cells at 3 nM incubated for 24 hrs by Annexin-V-FITC/PI staining based flow cytometry analysis (reference value: 4.24%); type: functional
[29] = test system: MHCC97H; test: Antitumor activity against human MHCC97H cells xenografted in BALB/c mouse assessed as tumor growth inhibition at 20 mg/kg, po qd for 22 days and measured every 2 days; type: functional; details: 528 h, time 22 day, read-out: TGI
[30] = Toxicity in BALB/c mouse xenografted with human MHCC97H cells assessed as spleen lesions at 20 mg/kg, po qd for 22 days and measured every 2 days by H and E staining based assay; type: organism-based; details: in vivo, 528 h, time 22 day
[31] = test system: MHCC97H; test: Induction of apoptosis in human MHCC97H cells assessed as necrotic cells at 100 nM incubated for 24 hrs by Annexin-V-FITC/PI staining based flow cytometry analysis (reference value: 1.77%); type: functional
[32] = Clearance in Sprague-Dawley rat at 1 mg/kg, iv by LC-MS/MS method; type: ADME, organism-based; details: in vivo

## N#Cc1cccc(-c2ccc(=O)n(Cc3cccc(-c4ncc(OCC5CCN(CCCCCC(=O)NCC67CC8CC(CC(C8)C6)C7)CC5)cn4)c3)n2)c1
[1]
  IC50: 463 nM
[2]
  DC50: 226 nM
[2]; dose 63-100 nM
  Activity: Dose-Dependent Effect
[3]
  Activity: Non-Toxic
[4]
  CL/F: 3310 mL/min/kg
[5]
  inhibition in vivo at 10 mg/kg: 61.5%
[6]
  Activity: Dose-Dependent Effect
[7]
  Activity: Active
[8]
  MRT inf: 3.73 h
[9]
  inhibition: Active
[10]
  Activity: Dose-Dependent Effect
[11]
  Activity: 0.74%
[12]
  MRT inf: 3.86 h
[13]
  Activity: 79.1%
[14]
  Cmax: 1630 ng/mL
[15]
  Activity: Non-Toxic
[16]
  Activity: 84.8%
[17]
  Activity: Non-Toxic
[18]
  half-life: 2.5 h
[19]
  Activity: 19.7%
[20]
  Activity: Dose-Dependent Effect
[21]
  Activity: Active
[22]
  Activity: 1.4%
[23]
  Activity: Active
[24]
  Activity: 6.18%
[25]
  Activity: 39.9%
[26]
  Activity: Non-Toxic
[27]
  Activity: Active
[28]
  Activity: 3.76%
[29]
  inhibition in vivo at 20 mg/kg: 52.5%
[30]
  Activity: Non-Toxic
[31]
  Activity: 1.35%
[32]
  clearance: 17.5 mL/min/kg
